HELM strings list units from the 5' end as sugar, base in round brackets, then linkage (d deoxyribose, r ribose, m 2'-O-methyl, p phosphodiester). Strings are as the collection lists them, not checked against the first reports. ss, as = sense and antisense strand; [s4r] = 4'-thioribose; [fl2r] = 2'-fluoro
Conditions: siRNA
Also: test system not given here.

Q: With “RNA1{r(A)p.r(A)p.r(A)p.r(C)p.[fl2r](C)p.[fl2r](A)p.r(G)p.r(G)p.[fl2r](A)p.r(A)p.r(G)p.[fl2r](G)p.r(G)p.r(G)p.r(A)p.r(A)p.r(A)p.r(U)p.r(C)p.r(T)p.r(T)}|RNA2{r(G)p.r(A)p.r(U)p.r(U)p.r(U)p.r(C)p.r(C)p.r(C)p.r(C)p.r(U)p.r(U)p.r(C)p.r(C)p.[fl2r](U)p.[fl2r](G)p.r(G)p.r(U)p.r(U)p.r(U)p.r(T)p.r(T)}$$$RNA1{StrandType:ss}|RNA2{StrandType:as}$” as the substance, how does the target mRNA knockdown read?
A: The target mRNA knockdown was 61%.

Q: Which target mRNA knockdown does the source give for “RNA1{r(A)p.r(A)p.r(A)p.r(C)p.[fl2r](C)p.[fl2r](A)p.r(G)p.r(G)p.r(A)p.r(A)p.r(G)p.r(G)p.r(G)p.r(G)p.r(A)p.r(A)p.r(A)p.r(U)p.r(C)p.r(T)p.r(T)}|RNA2{r(G)p.r(A)p.r(U)p.r(U)p.r(U)p.r(C)p.r(C)p.r(C)p.r(C)p.r(U)p.r(U)p.r(C)p.r(C)p.r(U)p.r(G)p.r(G)p.r(U)p.r(U)p.r(U)p.r(T)p.r(T)}$$$RNA1{StrandType:ss}|RNA2{StrandType:as}$” here?
A: The target mRNA knockdown was 64%.

Q: With “RNA1{r(A)p.r(A)p.r(A)p.r(C)p.m(C)p.r(U)p.m(C)p.r(A)p.r(G)p.r(C)p.r(C)p.r(C)p.m(U)p.r(A)p.r(A)p.r(C)p.r(G)p.r(G)p.r(U)p.r(T)p.r(T)}|RNA2{r(A)p.r(C)p.r(C)p.r(G)p.r(U)p.m(U)p.r(A)p.r(G)p.r(G)p.r(G)p.r(C)p.m(U)p.r(G)p.r(A)p.r(G)p.r(G)p.r(U)p.r(U)p.r(U)p.r(T)p.r(T)}$$$RNA1{StrandType:ss}|RNA2{StrandType:as}$” as the substance, how does the target mRNA knockdown read?
A: Its target mRNA knockdown is 79%.

Q: With “RNA1{r(A)p.r(A)p.r(A)p.r(C)p.r(A)p.r(U)p.r(G)p.r(C)p.r(A)p.r(G)p.r(A)p.r(A)p.r(A)p.r(A)p.r(U)p.r(G)p.r(C)p.r(U)p.r(G)p.r(T)p.r(T)}|RNA2{[s4r](C)p.[s4r](A)p.r(G)p.r(C)p.r(A)p.r(U)p.r(U)p.r(U)p.r(U)p.r(C)p.r(U)p.r(G)p.r(C)p.r(A)p.r(U)p.r(G)p.r(U)p.[s4r](U)p.[s4r](U)p.r(T)p.r(T)}$$$RNA1{StrandType:ss}|RNA2{StrandType:as}$” as the substance, how does the target mRNA knockdown read?
A: The target mRNA knockdown was 42.5%.

Q: For “RNA1{r(A)p.r(A)p.r(A)p.r(C)p.r(A)p.r(U)p.r(G)p.r(C)p.r(A)p.r(G)p.r(A)p.r(A)p.r(A)p.r(A)p.r(U)p.r(G)p.r(C)p.r(U)p.r(G)p.r(T)p.r(T)}|RNA2{r(C)p.r(A)p.r(G)p.r(C)p.r(A)p.r(U)p.r(U)p.r(U)p.r(U)p.r(C)p.r(U)p.r(G)p.r(C)p.r(A)p.r(U)p.[s4r](G)p.[s4r](U)p.[s4r](U)p.[s4r](U)p.r(T)p.r(T)}$$$RNA1{StrandType:ss}|RNA2{StrandType:as}$”, which target mRNA knockdown is on record?
A: The target mRNA knockdown was 52.7%.

Q: Which target mRNA knockdown does the source give for “RNA1{r(A)p.r(A)p.r(A)p.r(C)p.r(A)p.r(U)p.r(G)p.r(C)p.r(A)p.r(G)p.r(A)p.r(A)p.r(A)p.r(A)p.r(U)p.r(G)p.r(C)p.r(U)p.r(G)p.r(T)p.r(T)}|RNA2{r(C)p.r(A)p.r(G)p.r(C)p.r(A)p.r(U)p.r(U)p.r(U)p.r(U)p.r(C)p.r(U)p.r(G)p.r(C)p.r(A)p.r(U)p.r(G)p.r(U)p.[s4r](U)p.[s4r](U)p.r(T)p.r(T)}$$$RNA1{StrandType:ss}|RNA2{StrandType:as}$” here?
A: Its target mRNA knockdown is 57.2%.

Q: For “RNA1{r(A)p.r(A)p.r(A)p.r(C)p.r(C)p.r(C)p.r(C)p.[fl2r](U)p.r(A)p.r(G)p.r(A)p.r(G)p.r(G)p.[fl2r](G)p.r(C)p.r(A)p.r(A)p.r(G)p.r(U)p.r(T)p.r(T)}|RNA2{r(A)p.r(C)p.r(U)p.[fl2r](U)p.r(G)p.r(C)p.r(C)p.r(C)p.r(U)p.r(C)p.[fl2r](U)p.r(A)p.r(G)p.r(G)p.r(G)p.r(G)p.r(U)p.r(U)p.r(U)p.r(T)p.r(T)}$$$RNA1{StrandType:ss}|RNA2{StrandType:as}$”, which target mRNA knockdown is on record?
A: Its target mRNA knockdown is 82%.

Q: For “RNA1{r(A)p.r(A)p.r(A)p.r(C)p.r(C)p.r(C)p.r(C)p.[fl2r](U)p.r(A)p.r(G)p.r(A)p.r(G)p.r(G)p.r(G)p.[fl2r](C)p.r(A)p.r(A)p.r(G)p.r(U)p.r(T)p.r(T)}|RNA2{r(A)p.r(C)p.r(U)p.r(U)p.r(G)p.r(C)p.r(C)p.r(C)p.r(U)p.r(C)p.r(U)p.r(A)p.r(G)p.r(G)p.r(G)p.r(G)p.r(U)p.r(U)p.r(U)p.r(T)p.r(T)}$$$RNA1{StrandType:ss}|RNA2{StrandType:as}$”, which target mRNA knockdown is on record?
A: The target mRNA knockdown was 83%.

Q: For “RNA1{r(A)p.r(A)p.r(A)p.r(C)p.r(C)p.r(C)p.r(C)p.m(U)p.r(A)p.r(G)p.r(A)p.r(G)p.r(G)p.r(G)p.m(C)p.r(A)p.r(A)p.r(G)p.r(U)p.r(T)p.r(T)}|RNA2{r(A)p.r(C)p.r(U)p.m(U)p.r(G)p.r(C)p.r(C)p.r(C)p.r(U)p.r(C)p.m(U)p.r(A)p.r(G)p.r(G)p.r(G)p.r(G)p.r(U)p.r(U)p.r(U)p.r(T)p.r(T)}$$$RNA1{StrandType:ss}|RNA2{StrandType:as}$”, which target mRNA knockdown is on record?
A: Its target mRNA knockdown is 78%.

Q: With “RNA1{r(A)p.r(A)p.r(A)p.r(C)p.r(C)p.r(C)p.r(C)p.m(U)p.r(A)p.r(G)p.r(A)p.r(G)p.r(G)p.r(G)p.r(C)p.r(A)p.r(A)p.r(G)p.r(U)p.r(T)p.r(T)}|RNA2{r(A)p.r(C)p.r(U)p.r(U)p.r(G)p.r(C)p.r(C)p.r(C)p.r(U)p.r(C)p.m(U)p.r(A)p.r(G)p.r(G)p.r(G)p.r(G)p.r(U)p.r(U)p.r(U)p.r(T)p.r(T)}$$$RNA1{StrandType:ss}|RNA2{StrandType:as}$” as the substance, how does the target mRNA knockdown read?
A: The target mRNA knockdown was 75%.

Q: Which target mRNA knockdown does the source give for “RNA1{r(A)p.r(A)p.r(A)p.r(C)p.r(C)p.r(C)p.r(C)p.r(U)p.r(A)p.r(G)p.r(A)p.r(G)p.r(G)p.r(G)p.r(C)p.r(A)p.r(A)p.r(G)p.r(U)p.r(T)p.r(T)}|RNA2{[fl2r](A)p.r(C)p.[fl2r](U)p.r(U)p.[fl2r](G)p.r(C)p.[fl2r](C)p.r(C)p.[fl2r](U)p.r(C)p.[fl2r](U)p.r(A)p.[fl2r](G)p.r(G)p.[fl2r](G)p.r(G)p.[fl2r](U)p.r(U)p.[fl2r](U)p.r(T)p.r(T)}$$$RNA1{StrandType:ss}|RNA2{StrandType:as}$” here?
A: Its target mRNA knockdown is 37%.

Q: For “RNA1{r(A)p.r(A)p.r(A)p.r(C)p.r(C)p.r(U)p.m(C)p.r(A)p.r(G)p.r(C)p.r(C)p.r(C)p.m(U)p.r(A)p.r(A)p.r(C)p.r(G)p.r(G)p.r(U)p.r(T)p.r(T)}|RNA2{r(A)p.r(C)p.r(C)p.r(G)p.r(U)p.m(U)p.r(A)p.r(G)p.r(G)p.r(G)p.r(C)p.m(U)p.r(G)p.r(A)p.r(G)p.r(G)p.r(U)p.r(U)p.r(U)p.r(T)p.r(T)}$$$RNA1{StrandType:ss}|RNA2{StrandType:as}$”, which target mRNA knockdown is on record?
A: Its target mRNA knockdown is 70%.

Q: With “RNA1{r(A)p.r(A)p.r(A)p.r(C)p.r(C)p.r(U)p.r(C)p.m(A)p.r(G)p.r(C)p.r(C)p.r(C)p.r(U)p.r(A)p.r(A)p.r(C)p.r(G)p.r(G)p.r(U)p.r(T)p.r(T)}|RNA2{r(A)p.r(C)p.r(C)p.r(G)p.r(U)p.m(U)p.r(A)p.r(G)p.r(G)p.r(G)p.r(C)p.r(U)p.r(G)p.r(A)p.r(G)p.r(G)p.r(U)p.r(U)p.r(U)p.r(T)p.r(T)}$$$RNA1{StrandType:ss}|RNA2{StrandType:as}$” as the substance, how does the target mRNA knockdown read?
A: The target mRNA knockdown was 70%.

Q: With “RNA1{r(A)p.r(A)p.r(A)p.r(C)p.r(C)p.r(U)p.r(C)p.r(A)p.r(G)p.r(C)p.r(C)p.r(C)p.m(U)p.m(A)p.r(A)p.r(C)p.r(G)p.r(G)p.r(U)p.r(T)p.r(T)}|RNA2{r(A)p.r(C)p.r(C)p.r(G)p.r(U)p.m(U)p.r(A)p.r(G)p.r(G)p.r(G)p.r(C)p.r(U)p.r(G)p.r(A)p.r(G)p.r(G)p.r(U)p.r(U)p.r(U)p.r(T)p.r(T)}$$$RNA1{StrandType:ss}|RNA2{StrandType:as}$” as the substance, how does the target mRNA knockdown read?
A: Its target mRNA knockdown is 69%.

Q: Which target mRNA knockdown does the source give for “RNA1{r(A)p.r(A)p.r(A)p.r(C)p.r(G)p.m(U)p.r(G)p.r(A)p.r(C)p.r(U)p.r(U)p.m(U)p.r(G)p.r(G)p.r(U)p.r(U)p.r(C)p.m(C)p.r(U)p.r(T)p.r(T)}|RNA2{r(A)p.r(G)p.r(G)p.r(A)p.r(A)p.r(C)p.m(C)p.r(A)p.r(A)p.r(A)p.r(G)p.r(U)p.m(C)p.r(A)p.r(C)p.r(G)p.r(U)p.r(U)p.r(U)p.r(T)p.r(T)}$$$RNA1{StrandType:ss}|RNA2{StrandType:as}$” here?
A: The target mRNA knockdown was 82%.

Q: For “RNA1{r(A)p.r(A)p.r(A)p.r(C)p.r(G)p.r(A)p.m(G)p.r(A)p.r(G)p.r(A)p.r(G)p.r(C)p.r(C)p.m(C)p.r(A)p.r(C)p.r(C)p.r(U)p.r(U)p.r(T)p.r(T)}|RNA2{r(A)p.r(A)p.r(G)p.r(G)p.m(U)p.m(G)p.r(G)p.r(G)p.r(C)p.r(U)p.r(C)p.r(U)p.r(C)p.r(U)p.r(C)p.r(G)p.r(U)p.r(U)p.r(U)p.r(T)p.r(T)}$$$RNA1{StrandType:ss}|RNA2{StrandType:as}$”, which target mRNA knockdown is on record?
A: The target mRNA knockdown was 56%.

Q: For “RNA1{r(A)p.r(A)p.r(A)p.r(C)p.r(G)p.r(A)p.r(G)p.r(A)p.r(G)p.r(A)p.r(G)p.r(C)p.r(C)p.r(C)p.r(A)p.r(C)p.r(C)p.r(U)p.r(U)p.r(T)p.r(T)}|RNA2{r(A)p.r(A)p.r(G)p.r(G)p.m(U)p.r(G)p.r(G)p.r(G)p.r(C)p.r(U)p.r(C)p.r(U)p.r(C)p.r(U)p.r(C)p.r(G)p.r(U)p.r(U)p.r(U)p.r(T)p.r(T)}$$$RNA1{StrandType:ss}|RNA2{StrandType:as}$”, which target mRNA knockdown is on record?
A: The target mRNA knockdown was 57%.

Q: With “RNA1{r(A)p.r(A)p.r(A)p.r(C)p.r(G)p.r(U)p.r(G)p.r(A)p.r(C)p.r(U)p.r(U)p.m(U)p.r(G)p.r(G)p.r(U)p.r(U)p.r(C)p.r(C)p.r(U)p.r(T)p.r(T)}|RNA2{r(A)p.r(G)p.r(G)p.r(A)p.r(A)p.r(C)p.r(C)p.r(A)p.r(A)p.r(A)p.r(G)p.r(U)p.m(C)p.r(A)p.r(C)p.r(G)p.r(U)p.r(U)p.r(U)p.r(T)p.r(T)}$$$RNA1{StrandType:ss}|RNA2{StrandType:as}$” as the substance, how does the target mRNA knockdown read?
A: Its target mRNA knockdown is 83%.

Q: With “RNA1{r(A)p.r(A)p.r(A)p.r(G)p.r(C)p.r(G)p.r(G)p.m(U)p.m(G)p.r(G)p.r(A)p.r(U)p.m(C)p.r(A)p.r(G)p.r(C)p.r(U)p.r(C)p.r(U)p.r(T)p.r(T)}|RNA2{r(A)p.r(G)p.r(A)p.r(G)p.r(C)p.m(U)p.r(G)p.r(A)p.r(U)p.r(C)p.m(C)p.m(A)p.r(C)p.r(C)p.r(G)p.r(C)p.r(U)p.r(U)p.r(U)p.r(T)p.r(T)}$$$RNA1{StrandType:ss}|RNA2{StrandType:as}$” as the substance, how does the target mRNA knockdown read?
A: Its target mRNA knockdown is 63%.

Q: Which target mRNA knockdown does the source give for “RNA1{r(A)p.r(A)p.r(A)p.r(G)p.r(C)p.r(G)p.r(G)p.r(U)p.r(G)p.r(G)p.r(A)p.r(U)p.r(C)p.r(A)p.r(G)p.r(C)p.r(U)p.r(C)p.r(U)p.r(T)p.r(T)}|RNA2{r(A)p.r(G)p.r(A)p.r(G)p.r(C)p.m(U)p.r(G)p.r(A)p.r(U)p.r(C)p.m(C)p.r(A)p.r(C)p.r(C)p.r(G)p.r(C)p.r(U)p.r(U)p.r(U)p.r(T)p.r(T)}$$$RNA1{StrandType:ss}|RNA2{StrandType:as}$” here?
A: Its target mRNA knockdown is 67%.
